In patent US20120172401A1, “BENZIMIDAZOLE DERIVATIVE AND USE AS ANGIOTENSIN II ANTAGONIST” (Takeda Pharmaceutical Company Limited, priority 2005, published 2012):
≈ marks a conversion by molar mass, not a printed value. Where two headings read alike, the source gives them in different places.

Assays:
[1] = test system: Angiotensin II (AII)-induced vasopressor action; test: Inhibitory effect on angiotensin II (AII)-induced vasopressor action in rat; format: in vivo; conditions: male SD rats, AII 100 ng/kg i.v., p.o., mean±SEM
Description: 11-Week-old male SD rats (JCL: SD, CLEA Japan, Inc.) were anesthetized with pentobarbital (50 mg/kg, i.p.), the femoral artery and femoral vein were isolated, and a polyethylene tube filled with physiological saline containing heparin (200 U/mL) was placed therein. The catheter was subcutaneously fixed in the back of the neck. After recovery period, the rats were subjected to the test.
The arterial catheter was connected to a pressure transducer (2238, NEC San-ei Instruments) and the signals were output on a pen recorder (RECTI-HORIZ 8K, NEC San-ei Instruments) via an amplifier for blood pressure. After the vasopressor action of AII (100 ng/kg, i.v.) was stabilized, a test compound in an equimolar dose to compound A was administered. After 24 hrs, AII was administered, an increase in the blood pressure was measured, and an inhibition rate relative to the value before drug administration was calculated. All compounds were suspended in 0.5% methylcellulose and orally administered at a volume of 2 mL/kg.
The results are shown as mean±SEM (Table 6). The significance between the compound (I) administration group and other compound administration group was determined by the Student's t test (**: p<0.01, *: p<0.05).

insulin sensitivity = test: Enhancing effect on insulin sensitivity in rat (glucose clamp technique); format: in vivo; conditions: spontaneously hypertensive rats, p.o. for 2 weeks, average glucose injection rate 50-90 min, mean±SEM
Description: 24-Week-old male spontaneously hypertensive rats (SLC: SHR/Izm, Japan SLC, Inc.) were used. The body weight, systolic blood pressure, fasting blood glucose level, plasma insulin level and plasma triglyceride level of the rats were measured, and the rats were divided into a vehicle (0.5% methylcellulose solution) administration group and compound (I) (0.12, 0.37 and 1.23 mg/kg) administration groups using them as indices. Compound (I) was suspended in 0.5% methylcellulose solution and orally administered at a volume of 2 mL/kg for 2 weeks.
The insulin sensitivity was evaluated by the glucose clamp technique. To be specific, the rats after fasting overnight were anesthetized with pentobarbital sodium (Nembutal injection, Dainippon Pharmaceutical Co. Ltd., 50 mg/kg i.p.), and catheters (SP45, Natume Seisakusho Co., Ltd.) for blood sampling, insulin (novolin R/100, Novo Nordisk Pharma Co., Ltd.) infusion and glucose (Otsuka Glucose Injection 50%, Otsuka Pharmaceutical Co., Ltd.) infusion were each placed in the right common carotid artery, left femoral vein and right femoral vein. After single intravenous injection of 25 mU/kg of insulin, high insulin state was maintained by infusion using an infusion pump (KDS100, KDS) at an injection rate of 4 mU/kg/min. In addition, glucose in an amount necessary for maintaining the normal blood glucose level was intravenously infused using a different infusion pump (KDS100, KDS). Intravenous injection of glucose was started from 10 min after the start of the injection of insulin, and the glucose injection rate was changed after blood glucose measurement performed every 5 min. The blood glucose level then was quickly measured using a simple blood glucose measurement apparatus (ACCU-CHEK Comfort, Roche diagnostics). Glucose was infused for 90 min., the average value of the glucose injection rate was calculated for 40 min (from 50 min. to 90 min. after the start of the injection) and used as an index (M value) of insulin sensitivity.
The results are shown as mean±SEM (Table 7). […]

[2] = Solubility in JP1, JP2 and GCDC/JP2; format: physicochemical; conditions: for solubility in comparison with compound X: in words; for solubility at 2 h: thermodynamic from solid, 37° C.
Description: About 2 mg of samples were suspended in 2 mL of JP1, JP2 and 20 mmol/L GCDC/JP2. The suspension was equilibrated at 37° C. for 2 hrs and filtered. The concentration in the solutions was determined by HPLC under the following conditions.
• Detector: UV 254 nm • Column: CAPCELLPAK C18 MG 75×4.6 mm • Mobile Phase A: 0.05 mol/L ammonium formate buffer (pH 3)/MeCN=9:1 • Mobile Phase B: 0.05 mol/L ammonium formate buffer (pH 3)/MeCN=1:9 • Gradient Program: 0→10 min 0→100% B) • 10→15 min 100% B) • 15.1→20 min 0% B) • Column Temp.: 40° C. • Flow Rate: 1 mL/min • Injection vol.: 10 gL

[3] = Membrane permeability by Parallel Artificial Membrane Permeability Assay (PAMPA); format: in vitro ADME; conditions: for Papp at 3 h, 50 gmol/L: PAMPA; for permeability in comparison with compound X: in words
Description: The permeability with the artificial membrane was determined by PAMPA under the following conditions. • lipid membrane: GIT mode (pION) • measurement wavelength: 250-400 nm • incubation time: 3 hrs • incubation temperature: 25° C. • Donor: […] 50 gmol/L

[4] = Heat stability of Form A crystal; format: physicochemical; conditions: in words
[5] = pH 1.2, simulated gastric fluid, JP1, read-out: Solubility JP1
[6] = pH 6.8, fassgf or other biorelevant, 20 mmol/L GCDC/JP2, read-out: Solubility GCDC/JP2
[7] = pH 6.8, fassgf or other biorelevant, JP2, read-out: Solubility JP2
[8] = pH 5.5, GIT mode lipid membrane, 3 hrs, 25° C., read-out: PAMPA pH 5.5
[9] = pH 6.2, GIT mode lipid membrane, 3 hrs, 25° C., read-out: PAMPA PH 6.2
[10] = pH 7.4, GIT mode lipid membrane, 3 hrs, 25° C., read-out: PAMPA PH 7.4

## Cc1oc(=O)oc1COC(=O)c1cccc2nc(C3CC3)n(Cc3ccc(-c4ccccc4-c4noc(=O)[nH]4)cc3)c12 [Compound (I), (5-Methyl-2-oxo-1,3-dioxol-4-yl)methyl 2-cyclopropyl-1-{[2′-(5-oxo-4,5-dihydro-1,2,4-oxadiazol-3-yl)biphenyl-4-yl]methyl}-1H-benzimidazole-7-carboxylate]
[1]; 0.12 mg/kg
  suppression rate at 24 hrs after administration: 20.2%
Insulin sensitivity; 0.12 mg/kg
  M value: 8.2
Insulin sensitivity; 0.37 mg/kg
  M value: 9.0
Insulin sensitivity; 1.23 mg/kg
  M value: 9.8

## O=C(O)c1cccc2nc(C3CC3)n(Cc3ccc(-c4ccccc4-c4noc(=O)[nH]4)cc3)c12 [Compound A, 2-cyclopropyl-1-{[2′-(5-oxo-4,5-dihydro-1,2,4-oxadiazol-3-yl)biphenyl-4-yl]methyl}-1H-benzimidazole-7-carboxylic acid]
[1]; 0.10 mg/kg
  suppression rate at 24 hrs after administration: −6.0%
[2]
  solubility in comparison with compound X: soluble
[2]; [5]
  solubility at 2 h: 130 µg/mL (≈ 287 µM)
[2]; [6]
  solubility at 2 h: 680 µg/mL (≈ 1500 µM)
[2]; [7]
  solubility at 2 h: 470 µg/mL (≈ 1040 µM)
[3]; [8]
  Papp at 3 h, 50 gmol/L: 13 ×10⁻⁶ cm/s
[3]; [9]
  Papp at 3 h, 50 gmol/L: 0.63 ×10⁻⁶ cm/s
[3]
  permeability in comparison with compound X: less permeable
[3]; pH 7.4, GIT mode lipid membrane, 3 hrs, 25° C.
  PAMPA PH 7.4: 0 ×10⁻⁶ cm/s

## COC(=O)c1cccc2nc(C3CC3)n(Cc3ccc(-c4ccccc4-c4noc(=O)[nH]4)cc3)c12 [Compound B, methyl 2-cyclopropyl-1-{[2′-(5-oxo-4,5-dihydro-1,2,4-oxadiazol-3-yl)biphenyl-4-yl]methyl}-1H-benzimidazole-7-carboxylate]
[1]; 0.10 mg/kg
  suppression rate at 24 hrs after administration: 2.6%
[2]
  solubility in comparison with compound X: less soluble
[2]; [5]
  solubility at 2 h: 160 µg/mL (≈ 343 µM)
[2]; [6]
  solubility at 2 h: 27 µg/mL (≈ 57.9 µM)
[2]; [7]
  solubility at 2 h: 2.8 µg/mL (≈ 6 µM)
[3]; [8]
  Papp at 3 h, 50 gmol/L: 46 ×10⁻⁶ cm/s
[3]; [9]
  Papp at 3 h, 50 gmol/L: 20 ×10⁻⁶ cm/s
[3]; [10]
  Papp at 3 h, 50 gmol/L: 8.9 ×10⁻⁶ cm/s
[3]
  permeability in comparison with compound X: permeable

## Cc1oc(=O)oc1COC(=O)c1cccc2nc(C3CC3)n(Cc3ccc(-c4ccccc4-c4noc(=O)[nH]4)cc3)c12 [Compound X, crystal of (5-methyl-2-oxo-1,3-dioxol-4-yl)methyl 2-cyclopropyl-1-{[2′-(5-oxo-4,5-dihydro-1,2,4-oxadiazol-3-yl)biphenyl-4-yl]methyl}-1H-benzimidazole-7-carboxylate]
[2]; [5]
  solubility at 2 h: 27 µg/mL (≈ 47.8 µM)
[2]; [6]
  solubility at 2 h: 52 µg/mL (≈ 92.1 µM)
[2]; [7]
  solubility at 2 h: 8.3 µg/mL (≈ 14.7 µM)
[3]; [8]
  Papp at 3 h, 50 gmol/L: 21 ×10⁻⁶ cm/s
[3]; [9]
  Papp at 3 h, 50 gmol/L: 19 ×10⁻⁶ cm/s
[3]; [10]
  Papp at 3 h, 50 gmol/L: 9.5 ×10⁻⁶ cm/s
[4]
  stability to heat: stable to heat
